Data published in patent US12209087B2, “AKT1 modulators” (Alterome Therapeutics, Inc., priority 2022, dated 2025).

Molecular target: T1, full length AKT E17K (Homo sapiens, UniProt P31749, E17K)
T1 construct: host or cells: HEK-293 (ATCC CRL-1573)
Assay: NanoBRET Target Engagement (TE) Assay
Type: cell-based
Settings: competitive tracer displacement in living cells, read-out: AKT1 E17K IC50
Outline: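 Compound and tracer incubated 2 h before luminescence at donor 450 nm and acceptor 600 nm, with extracellular signal inhibited. EC50 by sigmoidal variable-slope regression.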

T1 sequence (P31749 whole entry E17K): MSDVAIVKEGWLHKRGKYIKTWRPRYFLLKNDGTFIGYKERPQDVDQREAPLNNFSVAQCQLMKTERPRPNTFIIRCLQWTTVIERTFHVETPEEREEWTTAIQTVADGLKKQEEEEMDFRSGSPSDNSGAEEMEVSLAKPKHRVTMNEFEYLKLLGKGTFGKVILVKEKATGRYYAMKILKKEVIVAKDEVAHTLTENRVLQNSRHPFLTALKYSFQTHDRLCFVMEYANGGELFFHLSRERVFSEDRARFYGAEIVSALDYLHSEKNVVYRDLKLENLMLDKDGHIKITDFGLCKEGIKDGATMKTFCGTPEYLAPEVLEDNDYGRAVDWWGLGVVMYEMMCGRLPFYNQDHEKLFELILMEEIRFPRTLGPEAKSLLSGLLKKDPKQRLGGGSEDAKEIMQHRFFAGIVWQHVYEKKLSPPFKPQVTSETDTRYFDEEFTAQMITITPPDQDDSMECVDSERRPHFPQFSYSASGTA

SMILES	IC50 [nM]
N#Cc1cnccc1C(=O)N1CCN(Cc2ccc(-n3c(-c4cccnc4N)nc4ccc(-c5ccccc5)nc43)cc2)CC1 [Example 144, 4-(4-(4-(2-(2-Aminopyridin-3-yl)-5-phenyl-3H-imidazo[4,5-b]pyridin-3-yl)benzyl)piperazine-1-carbonyl)nicotinonitrile]	600 to 10000
N#Cc1ccncc1C(=O)N1CCN(Cc2ccc(-n3c(-c4cccnc4N)nc4ccc(-c5ccccc5)nc43)cc2)CC1 [Example 145, 3-(4-(4-(2-(2-Aminopyridin-3-yl)-5-phenyl-3H-imidazo[4,5-b]pyridin-3-yl)benzyl)piperazine-1-carbonyl)isonicotinonitrile]	600 to 10000
N#Cc1cccnc1C(=O)N1CCN(Cc2ccc(-n3c(-c4cccnc4N)nc4ccc(-c5ccccc5)nc43)cc2)CC1 [Example 146, 2-(4-(4-(2-(2-Aminopyridin-3-yl)-5-phenyl-3H-imidazo[4,5-b]pyridin-3-yl)benzyl)piperazine-1-carbonyl)nicotinonitrile]	600 to 10000
N#Cc1ccnc(C(=O)NCc2ccc(-n3c(-c4cccnc4N)nc4cccnc43)cc2)c1 [Example 147, N-(4-(2-(2-Aminopyridin-3-yl)-3H-imidazo[4,5-b]pyridin-3-yl)benzyl)-4-cyanopicolinamide]	600 to 10000
N#Cc1nccc(C(=O)NCc2ccc(-n3c(-c4cccnc4N)nc4cccnc43)cc2)n1 [Example 148, N-(4-(2-(2-Aminopyridin-3-yl)-3H-imidazo[4,5-b]pyridin-3-yl)benzyl)-2-cyanopyrimidine-4-carboxamide]	600 to 10000
N#Cc1ccnc(C(=O)N2CCN(Cc3ccc(-n4c(-c5cccnc5N)nc5cccnc54)cc3)CC2)c1 [Example 149, 2-(4-(4-(2-(2-Aminopyridin-3-yl)-3H-imidazo[4,5-b]pyridin-3-yl)benzyl)piperazine-1-carbonyl)isonicotinonitrile]	600 to 10000
N#Cc1ccnc(C(=O)NC2CCN(Cc3ccc(-n4c(-c5cccnc5N)nc5ccc(-c6ccccc6)nc54)cc3)CC2)c1 [Example 150, N-(1-(4-(2-(2-Aminopyridin-3-yl)-5-phenyl-3H-imidazo[4,5-b]pyridin-3-yl)benzyl)piperidin-4-yl)-4-cyanopicolinamide]	60 to 600
N#Cc1nccc(C(=O)NC2CCN(Cc3ccc(-n4c(-c5cccnc5N)nc5ccc(-c6ccccc6)nc54)cc3)CC2)n1 [Example 151, N-(1-(4-(2-(2-Aminopyridin-3-yl)-5-phenyl-3H-imidazo[4,5-b]pyridin-3-yl)benzyl)piperidin-4-yl)-2-cyanopyrimidine-4-carboxamide]	< 15
N#Cc1nccc(C(=O)N2CCN(Cc3ccc(-n4c(-c5cccnc5N)nc5cccnc54)cc3)CC2)n1 [Example 152, 4-(4-(4-(2-(2-aminopyridin-3-yl)-3H-imidazo[4,5-b]pyridin-3-yl)benzyl)piperazine-1-carbonyl)pyrimidine-2-carbonitrile]	60 to 600
N#Cc1ncccc1C(=O)N1CCN(Cc2ccc(-n3c(-c4cccnc4N)nc4cccnc43)cc2)CC1 [Example 153, 3-(4-(4-(2-(2-Aminopyridin-3-yl)-3H-imidazo[4,5-b]pyridin-3-yl)benzyl)piperazine-1-carbonyl)picolinonitrile]	600 to 10000
N#Cc1cnccc1C(=O)N1CCN(Cc2ccc(-n3c(-c4cccnc4N)nc4cccnc43)cc2)CC1 [Example 154, 4-(4-(4-(2-(2-Aminopyridin-3-yl)-3H-imidazo[4,5-b]pyridin-3-yl)benzyl)piperazine-1-carbonyl)nicotinonitrile]	600 to 10000
N#Cc1ccncc1C(=O)N1CCN(Cc2ccc(-n3c(-c4cccnc4N)nc4cccnc43)cc2)CC1 [Example 155, 3-(4-(4-(2-(2-Aminopyridin-3-yl)-3H-imidazo[4,5-b]pyridin-3-yl)benzyl)piperazine-1-carbonyl)isonicotinonitrile]	600 to 10000
CN(c1ccnc(C#N)n1)C1CCN(Cc2ccc(-n3c(-c4cccnc4N)nc4ccc(-c5ccccc5)nc43)cc2)CC1 [Example 156, 4-((1-(4-(2-(2-Aminopyridin-3-yl)-5-phenyl-3H-imidazo[4,5-b]pyridin-3-yl)benzyl)piperidin-4-yl)(methyl)amino)pyrimidine-2-carbonitrile]	15 to 60
N#Cc1ccc(NC2CCN(Cc3ccc(-n4c(-c5cccnc5N)nc5cccnc54)cc3)CC2)cn1 [Example 157, 5-((1-(4-(2-(2-aminopyridin-3-yl)-3H-imidazo[4,5-b]pyridin-3-yl)benzyl)piperidin-4-yl)amino)picolinonitrile]	600 to 10000
N#Cc1cc(NC2CCN(Cc3ccc(-n4c(-c5cccnc5N)nc5ccc(-c6ccccc6)nc54)cc3)CC2)cnn1 [Example 158, 5-((1-(4-(2-(2-Aminopyridin-3-yl)-5-phenyl-3H-imidazo[4,5-b]pyridin-3-yl)benzyl)piperidin-4-yl)amino)pyridazine-3-carbonitrile]	15 to 60
N#Cc1cc(N2CCN(Cc3ccc(-n4c(-c5cccnc5N)nc5ccc(-c6ccccc6)nc54)cc3)CC2)cnn1 [Example 159, 5-(4-(4-(2-(2-Aminopyridin-3-yl)-5-phenyl-3H-imidazo[4,5-b]pyridin-3-yl)benzyl)piperazin-1-yl)pyridazine-3-carbonitrile]	15 to 60
N#Cc1nccnc1C(=O)N1CCN(Cc2ccc(-n3c(-c4cccnc4N)nc4ccc(-c5ccccc5)nc43)cc2)CC1 [Example 163, 3-(4-(4-(2-(2-aminopyridin-3-yl)-5-phenyl-3H-imidazo[4,5-b]pyridin-3-yl)benzyl)piperazine-1-carbonyl)pyrazine-2-carbonitrile]	60 to 600
N#Cc1nccnc1C(=O)N1CCN(Cc2ccc(-n3c(-c4cccnc4N)nc4cccnc43)cc2)CC1 [Example 164, 3-(4-(4-(2-(2-Aminopyridin-3-yl)-3H-imidazo[4,5-b]pyridin-3-yl)benzyl)piperazine-1-carbonyl)pyrazine-2-carbonitrile]	600 to 10000
N#Cc1ccc(C(=O)NC2CCN(Cc3ccc(-n4c(-c5cccnc5N)nc5cc(-c6ccccc6)cnc54)cc3)CC2)cn1 [Example 165, N-(1-(4-(2-(2-aminopyridin-3-yl)-6-phenyl-3H-imidazo[4,5-b]pyridin-3-yl)benzyl)piperidin-4-yl)-6-cyanonicotinamide]	600 to 10000
N#Cc1ccc(C(=O)N2CCN(Cc3ccc(-n4c(-c5cccnc5N)nc5ccc(-c6ccccc6)nc54)cc3)CC2)cn1 [Example 166, 5-(4-(4-(2-(2-Aminopyridin-3-yl)-5-phenyl-3H-imidazo[4,5-b]pyridin-3-yl)benzyl)piperazine-1-carbonyl)picolinonitrile]	15 to 60
N#Cc1ccc(C(=O)NC2CCN(Cc3ccc(-n4c(-c5cccnc5N)nc5ccc(-c6ccccc6)nc54)cc3)CC2)cn1 [Example 167, N-(1-(4-(2-(2-Aminopyridin-3-yl)-5-phenyl-3H-imidazo[4,5-b]pyridin-3-yl)benzyl)piperidin-4-yl)-6-cyanonicotinamide]	60 to 600
N#Cc1cccc(C(=O)NCc2ccc(-n3c(-c4cccnc4N)nc4cc(-c5ccccc5)cnc43)cc2)n1 [Example 168, N-(4-(2-(2-Aminopyridin-3-yl)-6-phenyl-3H-imidazo[4,5-b]pyridin-3-yl)benzyl)-6-cyanopicolinamide]	600 to 10000
N#Cc1cc(C(=O)NCc2ccc(-n3c(-c4cccnc4N)nc4cc(-c5ccccc5)cnc43)cc2)ccn1 [Example 169, N-(4-(2-(2-Aminopyridin-3-yl)-6-phenyl-3H-imidazo[4,5-b]pyridin-3-yl)benzyl)-2-cyanoisonicotinamide]	60 to 600
N#Cc1cc(C(=O)N2CCN(Cc3ccc(-n4c(-c5cccnc5N)nc5ccc(-c6ccccc6)nc54)cc3)CC2)ccn1 [Example 172, 4-(4-(4-(2-(2-Aminopyridin-3-yl)-5-phenyl-3H-imidazo[4,5-b]pyridin-3-yl)benzyl)piperazine-1-carbonyl)picolinonitrile]	15 to 60
N#Cc1nc2cc(F)cc(C(=O)NCc3ccc(-n4c(-c5cccnc5N)nc5cccnc54)cc3)c2s1 [Example 173, N-(4-(2-(2-aminopyridin-3-yl)-3H-imidazo[4,5-b]pyridin-3-yl)benzyl)-2-cyano-5-fluorobenzo[d]thiazole-7-carboxamide]	< 15
N#Cc1nc2c(C(=O)NCc3ccc(-n4c(-c5cccnc5N)nc5cccnc54)cc3)cc(F)cc2s1 [Example 174, N-(4-(2-(2-aminopyridin-3-yl)-3H-imidazo[4,5-b]pyridin-3-yl)benzyl)-2-cyano-6-fluorobenzo[d]thiazole-4-carboxamide]	15 to 60
N#Cc1nc2cc(F)cc(C(=O)N3CCN(Cc4ccc(-n5c(-c6cccnc6N)nc6cccnc65)cc4)CC3)c2s1 [Example 175, 7-(4-(4-(2-(2-aminopyridin-3-yl)-3H-imidazo[4,5-b]pyridin-3-yl)benzyl)piperazine-1-carbonyl)-5-fluorobenzo[d]thiazole-2-carbonitrile]	600 to 10000
N#Cc1nc2cc(F)cc(C(=O)N3CCN(Cc4ccc(-n5c(-c6cccnc6N)nc6ccc(-c7ccccc7)nc65)cc4)CC3)c2s1 [Example 180, 7-(4-(4-(2-(2-Aminopyridin-3-yl)-5-phenyl-3H-imidazo[4,5-b]pyridin-3-yl)benzyl)piperazine-1-carbonyl)-5-fluorobenzo[d]thiazole-2-carbonitrile]	15 to 60
N#Cc1nc2c(C(=O)N3CCN(Cc4ccc(-n5c(-c6cccnc6N)nc6ccc(-c7ccccc7)nc65)cc4)CC3)cc(F)cc2s1 [Example 181, 4-(4-(4-(2-(2-Aminopyridin-3-yl)-5-phenyl-3H-imidazo[4,5-b]pyridin-3-yl)benzyl)piperazine-1-carbonyl)-6-fluorobenzo[d]thiazole-2-carbonitrile]	15 to 60
N#Cc1nc2cc(F)cc(C(=O)NC3CCN(Cc4ccc(-n5c(-c6cccnc6N)nc6ccc(-c7ccccc7)nc65)cc4)CC3)c2s1 [Example 182, N-(1-(4-(2-(2-aminopyridin-3-yl)-5-phenyl-3H-imidazo[4,5-b]pyridin-3-yl)benzyl)piperidin-4-yl)-2-cyano-5-fluorobenzo[d]thiazole-7-carboxamide]	60 to 600
